Laboratory results reported in ChEMBL document CHEMBL5352429, “Designed symmetrical β-hairpin peptides for treating multidrug-resistant salmonella typhimurium infections” (Eur J Med Chem, 2022).
In brackets after ≈: the same amount, converted by molar mass. Activity calls are given as the source filed them. The rule behind the calls is not given here. Peptide text beside a SMILES is read from it.

What was measured:
Salmonella typhimurium [1] = assay: Antibacterial activity against Salmonella typhimurium DT104 in the presence of NaCl by MH broth based assay; format: functional, Salmonella enterica subsp. enterica serovar Typhimurium; conditions: Salmonella enterica
Salmonella typhimurium [2] = assay: Antibacterial activity against Salmonella typhimurium DT104 in the presence of KCl by MH broth based assay; format: functional, Salmonella enterica subsp. enterica serovar Typhimurium; conditions: Salmonella enterica
Salmonella typhimurium [3] = assay: Antibacterial activity against Salmonella typhimurium DT104 in the presence of NH4Cl by MH broth based assay; format: functional, Salmonella enterica subsp. enterica serovar Typhimurium; conditions: Salmonella enterica
Salmonella typhimurium [4] = assay: Antibacterial activity against Salmonella typhimurium DT104 in the presence of CaCl2 by MH broth based assay; format: functional, Salmonella enterica subsp. enterica serovar Typhimurium; conditions: Salmonella enterica
Salmonella typhimurium [5] = assay: Antibacterial activity against Salmonella typhimurium DT104 in the presence of MgCl2 by MH broth based assay; format: functional, Salmonella enterica subsp. enterica serovar Typhimurium; conditions: Salmonella enterica
Salmonella typhimurium [6] = assay: Antibacterial activity against Salmonella typhimurium DT104 in the presence of FeCl3 by MH broth based assay; format: functional, Salmonella enterica subsp. enterica serovar Typhimurium; conditions: Salmonella enterica
Salmonella typhimurium [7] = assay: Antibacterial activity against Salmonella typhimurium DT104 in the presence 25% inactivated mouse serum by MH broth based assay; format: functional, Salmonella enterica subsp. enterica serovar Typhimurium; conditions: Salmonella enterica
Salmonella typhimurium [8] = assay: Antibacterial activity against Salmonella typhimurium DT104 in the presence 50% inactivated mouse serum by MH broth based assay; format: functional, Salmonella enterica subsp. enterica serovar Typhimurium; conditions: Salmonella enterica
Staphylococcus aureus [9] = assay: Antibacterial activity against Staphylococcus aureus ATCC 29213 incubated overnight by standard microtiter dilution method; format: functional
Staphylococcus aureus [10] = assay: Antibacterial activity against methicillin-resistant Staphylococcus aureus ATCC 43300 incubated overnight by standard microtiter dilution method; format: functional
[11] = tested on: Staphylococcus epidermidis; assay: Antibacterial activity against methicillin-resistant Staphylococcus epidermidis ATCC 12228 incubated overnight by standard microtiter dilution method; format: functional
Enterococcus faecalis = assay: Antibacterial activity against Enterococcus faecalis ATCC 29212 incubated overnight by standard microtiter dilution method; format: functional
Escherichia coli = assay: Antibacterial activity against Escherichia coli O157:H7 CICC 21530 incubated overnight by standard microtiter dilution method; format: functional
Salmonella paratyphi = assay: Antibacterial activity against Salmonella paratyphi A CICC 21501 incubated overnight by standard microtiter dilution method; format: functional, Salmonella enterica subsp. enterica serovar Paratyphi A; conditions: Salmonella enterica
[12] = tested on: Salmonella enterica subsp. enterica serovar Paratyphi B; assay: Antibacterial activity against Salmonella paratyphi B CICC 21495 incubated overnight by standard microtiter dilution method; format: functional
[13] = Antibacterial activity against Salmonella paratyphi C CICC 21512 incubated overnight by standard microtiter dilution method; format: functional, Salmonella enterica subsp. enterica serovar Paratyphi C; conditions: Salmonella enterica
[14] = Antibacterial activity against Salmonella enterica subsp. enterica serovar Choleraesuis ATCC 13312 incubated overnight by standard microtiter dilution method; format: functional
[15] = Antibacterial activity against Salmonella enterica subsp. enterica serovar Choleraesuis CICC 21493 incubated overnight by standard microtiter dilution method; format: functional
Salmonella enteritidis = assay: Antibacterial activity against Salmonella enteritidis CICC 21527 incubated overnight by standard microtiter dilution method; format: functional, Salmonella enterica subsp. enterica serovar Enteritidis; conditions: Salmonella enterica
[16] = Antibacterial activity against Salmonella wandsworth CICC 21504 incubated overnight by standard microtiter dilution method; format: functional, Salmonella enterica subsp. enterica serovar Wandsworth; conditions: Salmonella enterica
Salmonella typhimurium [17] = assay: Antibacterial activity against Salmonella typhimurium CICC 21483 incubated overnight by standard microtiter dilution method; format: functional, Salmonella enterica subsp. enterica serovar Typhimurium; conditions: Salmonella enterica
Salmonella typhimurium [18] = assay: Antibacterial activity against Salmonella typhimurium CICC 21913 incubated overnight by standard microtiter dilution method; format: functional, Salmonella enterica subsp. enterica serovar Typhimurium; conditions: Salmonella enterica
[19] = Antibacterial activity against Salmonella blockley CICC 21489 incubated overnight by standard microtiter dilution method; format: functional, Salmonella enterica subsp. enterica serovar Blockley; conditions: Salmonella enterica
[20] = Antibacterial activity against Salmonella dublin CICC 21497 incubated overnight by standard microtiter dilution method; format: functional, Salmonella enterica subsp. enterica serovar Dublin; conditions: Salmonella enterica
Salmonella typhimurium [21] = assay: Antibacterial activity against Salmonella typhimurium DT104 ATCC 700408 incubated overnight by standard microtiter dilution method; format: functional, Salmonella enterica subsp. enterica serovar Typhimurium; conditions: Salmonella enterica
Candida albicans = assay: Antifungal activity against Candida albicans ATCC 10231 incubated overnight by standard microtiter dilution method; format: functional
Erythrocyte = assay: Hemolytic activity in human Red blood cells assessed as hemolysis incubated for 1 hrs by absorbance based microplate reader analysis; format: toxicity, cell-based
[22] = Hemolytic activity in human Red blood cells assessed as hemolysis at 128 ug/ml incubated for 1 hrs by absorbance based microplate reader analysis relative to control; format: toxicity, cell-based, Erythrocyte; conditions: red blood cells (erythrocytes), at 128 µg/mL, read-out: Activity
Lipopolysaccharide (LPS) = assay: Displacement of BODIPY-TR-cadaverine from Salmonella typhimurium LPS assessed as increase in fluorescence intensity by fluorescence spectrophotometric analysis; conditions: Salmonella enterica subsp. enterica serovar Typhimurium; dose 0.25-8 µg/ml
RAW264.7 [23] = assay: Inhibition of LPS-stimulated NO production in mouse RAW264.7 cells incubated for 24 hrs by Griess reagent based analysis; format: functional, cell-based; conditions: dose 1-128 µg/ml
RAW264.7 [24] = assay: Inhibition of LPS-stimulated TNF-alpha production in mouse RAW264.7 cells at 1 to 128 ug/ml incubated for 24 hrs by ELISA analysis; format: functional, cell-based; conditions: dose 1-128 µg/ml
RAW264.7 [25] = assay: Inhibition of LPS-stimulated IL-1beta production in mouse RAW264.7 cells at 1 to 128 ug/ml incubated for 24 hrs by ELISA analysis; format: functional, cell-based; conditions: dose 1-128 µg/ml
RAW264.7 [26] = assay: Inhibition of LPS-stimulated IL-8 production in mouse RAW264.7 cells at 1 to 128 ug/ml incubated for 24 hrs by ELISA analysis; format: functional, cell-based; conditions: dose 1-128 µg/ml
Cell membrane = assay: Disruption of membrane integrity in Salmonella typhimurium DT104 assessed as increase in fluorescence intensity at 0.5 to 2 times of MIC incubated for 15 mins by PI staining based flow cytometric analysis; format: subcellular; conditions: Salmonella enterica subsp. enterica serovar Typhimurium

| SMILES | MIC (Salmonella typhimurium [1]) [µg/mL] | MIC (Salmonella typhimurium [2]) [µg/mL] | MIC (Salmonella typhimurium [3]) [µg/mL] | MIC (Salmonella typhimurium [4]) [µg/mL] | MIC (Salmonella typhimurium [5]) [µg/mL] | MIC (Salmonella typhimurium [6]) [µg/mL] | MIC (Salmonella typhimurium [7]) [µg/mL] | MIC (Salmonella typhimurium [8]) [µg/mL] | MIC (Staphylococcus aureus [9]) [µg/mL] | MIC (Staphylococcus aureus [10]) [µg/mL] | MIC [11] [µg/mL] | MIC (Enterococcus faecalis) [µg/mL] | MIC (Escherichia coli) [µg/mL] | MIC (Salmonella paratyphi) [µg/mL] | MIC [12] [µg/mL] | MIC [13] [µg/mL] | MIC [14] [µg/mL] | MIC [15] [µg/mL] | MIC (Salmonella enteritidis) [µg/mL] | MIC [16] [µg/mL] | further results |
| --- | --- | --- | --- | --- | --- | --- | --- | --- | --- | --- | --- | --- | --- | --- | --- | --- | --- | --- | --- | --- | --- |
| CC(C)C[C@H](NC(=O)[C@H](CCCNC(=N)N)NC(=O)CNC(=O)CNC(=O)[C@@H](N)CCCNC(=N)N)C(=O)N[C@H]1CSSC[C@@H](C(=O)N[C@H](C(=O)NCC(=O)N[C@@H](CCCNC(=N)N)C(N)=O)C(C)C)NC(=O)[C@H](C(C)C)NC(=O)[C@@H]2CSSC[C@H](NC(=O)[C@H](Cc3ccc(O)cc3)NC1=O)C(=O)N[C@@H](CCCNC(=N)N)C(=O)N[C@@H](CCCNC(=N)N)C(=O)N[C@@H](CCCNC(=N)N)C(=O)N[C@@H](Cc1ccccc1)C(=O)N2 | 16 | 8 | 8 | 16 | 8 | 32 | 32 (≈ 14.8 µM) | 64 (≈ 29.7 µM) | – | – | – | – | – | – | – | – | – | – | – | – | – |
| CC(C)[C@H](N)C(=O)N[C@@H](CCCCN)C(=O)N[C@H](C(=O)N[C@@H](CCCCN)C(=O)N[C@@H](CS)C(=O)N[C@H](C(=O)N[C@@H](CCCCN)C(=O)N[C@@H](CO)C(=O)NCC(=O)N[C@@H](CS)C(=O)N[C@@H](CCCCN)C(=O)N[C@H](C(=O)N[C@@H](CCCCN)C(=O)N[C@H](C(N)=O)C(C)C)C(C)C)[C@@H](C)O)C(C)C (H-VKVKCTKSGCKVKV-NH2) | > 128 | > 128 | > 128 | > 128 | > 128 | > 128 | > 128 | > 128 | > 128 | > 128 | > 128 | > 128 | 64 (≈ 42.5 µM) | > 128 | 16 (≈ 10.6 µM) | 64 (≈ 42.5 µM) | 4 (≈ 2.66 µM) | > 128 | > 128 | > 128 | MIC (Salmonella typhimurium [17]): > 128 µg/mL; MIC (Salmonella typhimurium [18]): > 128 µg/mL; MIC [19]: > 128 µg/mL; MIC [20]: > 128 µg/mL; MIC (Salmonella typhimurium [21]): > 128 µg/mL; MIC (Candida albicans): 16 µg/mL (≈ 10.6 µM); MHC (Erythrocyte): > 128 µg/mL; hemolysis at 1 h, 128 ug/ml [22]: < 10%; Activity (Lipopolysaccharide (LPS)): Dose-Dependent Effect; inhibition (RAW264.7 [23]): Dose-Dependent Effect; inhibition (RAW264.7 [24]): Active; inhibition (RAW264.7 [25]): Active; inhibition (RAW264.7 [26]): Active; Activity (Cell membrane): Active |
| CC(C)[C@H](NC(=O)CNC(=O)[C@H](CC(N)=O)NC(=O)CNC(=O)[C@H](Cc1ccc(O)cc1)NC(=O)[C@H](Cc1ccc(O)cc1)NC(=O)[C@@H](N)CCCCN)C(=O)N[C@@H](Cc1c[nH]cn1)C(=O)N[C@@H](CS)C(=O)N[C@H](C(=O)N[C@@H](CCCCN)C(=O)N[C@@H](CO)C(=O)NCC(=O)N[C@@H](CS)C(=O)N[C@@H](CO)C(=O)N[C@H](C(=O)N[C@@H](CC(N)=O)C(=O)N[C@@H](Cc1c[nH]c2ccccc12)C(N)=O)C(C)C)[C@@H](C)O (H-KYYGNGVHCTKSGCSVNW-NH2) | > 128 | 128 | 64 | > 128 | 128 | 64 | > 128 | > 128 | > 128 | > 128 | 64 (≈ 32 µM) | > 128 | 64 (≈ 32 µM) | 128 (≈ 63.9 µM) | 32 (≈ 16 µM) | 32 (≈ 16 µM) | 32 (≈ 16 µM) | 128 (≈ 63.9 µM) | 64 (≈ 32 µM) | 64 (≈ 32 µM) | MIC (Salmonella typhimurium [17]): 64 µg/mL (≈ 32 µM); MIC (Salmonella typhimurium [18]): > 128 µg/mL; MIC [19]: 64 µg/mL (≈ 32 µM); MIC [20]: 32 µg/mL (≈ 16 µM); MIC (Salmonella typhimurium [21]): > 128 µg/mL; MIC (Candida albicans): 16 µg/mL (≈ 7.99 µM); MHC (Erythrocyte): > 128 µg/mL; hemolysis at 1 h, 128 ug/ml [22]: < 10%; Activity (Lipopolysaccharide (LPS)): Dose-Dependent Effect; inhibition (RAW264.7 [23]): Dose-Dependent Effect; inhibition (RAW264.7 [24]): Active; inhibition (RAW264.7 [25]): Active; inhibition (RAW264.7 [26]): Active; Activity (Cell membrane): inactive |
